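A five-concentration, 48-hour dose response in 96-well plates underlies each endpoint, interpolated linearly between surrounding concentrations. GI50 marks 50% less growth.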 The source made the active and inactive calls. Rule as the data show it: active = GI50 up to about 1.1 µM and inactive = higher.
Assays:
Assay in all cases: growth of human tumour cells (NCI), 48 h
UO-31 = tested on: UO-31
CAKI-1 = tested on: CAKI-1
MDA-MB-435 = tested on: MDA-MB-435
NCI-H23 = tested on: NCI-H23
SF-268 = tested on: SF-268
T47D = tested on: T47D
SF-539 = tested on: SF-539
KM12 = tested on: KM12
U-251 = tested on: U-251
DU-145 = tested on: DU-145
MDA-N = tested on: MDA-N
SK-OV-3 = tested on: SK-OV-3
SN12C = tested on: SN12C
PC-3 = tested on: PC-3
SW-620 = tested on: SW-620
RPMI-8226 = tested on: RPMI-8226
SNB-19 = tested on: SNB-19

Measured: GI50

O=C(/C=C1\Nc2ccc([N+](=O)[O-])cc2N=C1NC12CC3CC(CC(C3)C1)C2)c1ccccc1
inactive: UO-31 > 10 µM | CAKI-1 > 10 µM | MDA-MB-435 > 10 µM | NCI-H23 > 10 µM | SF-268 > 10 µM | T47D > 10 µM | SF-539 5.41 µM | KM12 > 10 µM | U-251 7.16 µM | DU-145 > 10 µM | MDA-N > 10 µM | SK-OV-3 3.77 µM | SN12C > 10 µM | PC-3 > 10 µM | SW-620 > 10 µM

CSc1nc2c(c(=O)[nH]1)N=C(c1ccccc1)CC(c1ccccc1)N2 (stereo not given)
inactive: UO-31 50.4 µM | CAKI-1 32.1 µM | MDA-MB-435 40.7 µM | NCI-H23 31.3 µM | SF-539 23.2 µM | KM12 14.1 µM | U-251 34 µM | RPMI-8226 28.5 µM | DU-145 30.1 µM | MDA-N 20.7 µM | SK-OV-3 33.6 µM | SNB-19 39.1 µM | SN12C 21.2 µM | PC-3 55.1 µM | SW-620 50.8 µM

CC(C)/C(Cl)=N\OC(=O)Nc1cccc(Cl)c1
inactive: UO-31 19.1 µM | CAKI-1 17.7 µM | NCI-H23 15.2 µM | SF-268 18.5 µM | T47D 26.8 µM | SF-539 18.9 µM | KM12 16.5 µM | U-251 18.4 µM | RPMI-8226 4.45 µM | DU-145 22.5 µM | MDA-N 14.8 µM | SK-OV-3 > 43.9 µM | SNB-19 > 100 µM | SN12C 16.1 µM | PC-3 15.9 µM | SW-620 2.97 µM

O=c1[nH]nc(Cc2ccccc2)n1O
inactive: UO-31 > 100 µM | CAKI-1 > 100 µM | MDA-MB-435 > 100 µM | NCI-H23 > 100 µM | SF-268 > 100 µM | T47D > 100 µM | SF-539 > 100 µM | KM12 > 100 µM | U-251 > 100 µM | RPMI-8226 > 100 µM | DU-145 > 100 µM | MDA-N > 100 µM | SK-OV-3 > 100 µM | SNB-19 > 100 µM | SN12C > 100 µM | SW-620 > 100 µM

COc1cccc2c1-c1c(OC)cccc1SS2
inactive: UO-31 22.8 µM | CAKI-1 25.2 µM | MDA-MB-435 3.73 µM | NCI-H23 18.6 µM | SF-268 22.6 µM | SF-539 17.7 µM | KM12 34 µM | U-251 15.7 µM | RPMI-8226 11.4 µM | DU-145 28.9 µM | MDA-N 2.67 µM | SNB-19 24.8 µM | SN12C 13.8 µM | PC-3 32.5 µM | SW-620 20.4 µM

C=CCOc1ccc(C(=N/NC(=O)c2ccccc2)/N=N/c2ccc(C)cc2)cc1OC
inactive: UO-31 24.8 µM | CAKI-1 40.8 µM | MDA-MB-435 19.5 µM | NCI-H23 20.2 µM | SF-268 52.7 µM | T47D 14.2 µM | KM12 18.1 µM | U-251 10.4 µM | DU-145 37.2 µM | MDA-N 20.7 µM | SNB-19 50 µM | SN12C 31.7 µM | PC-3 25.7 µM | SW-620 31.4 µM

O=C(/C=C\c1ccccc1-c1ccccc1)c1ccccc1
inactive: UO-31 > 100 µM | CAKI-1 > 100 µM | MDA-MB-435 > 100 µM | NCI-H23 33.3 µM | SF-268 > 100 µM | T47D 15.8 µM | SF-539 > 100 µM | KM12 29.4 µM | U-251 > 100 µM | RPMI-8226 30.8 µM | DU-145 > 100 µM | MDA-N > 100 µM | SK-OV-3 > 100 µM | SN12C > 100 µM | SW-620 > 100 µM

O=C(Nc1ccc(Cl)cc1)c1cc(S(=O)(=O)Nc2n[nH]c(=O)[nH]2)c(SSc2cc(Cl)c(C(=O)Nc3ccc(Cl)cc3)cc2S(=O)(=O)Nc2n[nH]c(=O)[nH]2)cc1Cl
inactive: UO-31 > 100 µM | CAKI-1 > 100 µM | MDA-MB-435 > 100 µM | NCI-H23 > 100 µM | SF-268 > 100 µM | KM12 > 100 µM | U-251 > 100 µM | RPMI-8226 > 100 µM | MDA-N > 100 µM | SK-OV-3 > 100 µM | SNB-19 > 100 µM | SN12C > 100 µM | PC-3 > 100 µM | SW-620 > 100 µM

O=C1/C(=C/c2ccco2)NC(=S)N1CN1CCCCC1
inactive: UO-31 26.9 µM | MDA-MB-435 > 100 µM | NCI-H23 > 100 µM | SF-268 68.4 µM | KM12 > 100 µM | U-251 > 100 µM | RPMI-8226 28.8 µM | DU-145 > 100 µM | MDA-N > 100 µM | SK-OV-3 > 100 µM | SNB-19 22.6 µM | SN12C > 100 µM | PC-3 > 100 µM | SW-620 38.5 µM

O=C(NN=C1CCN(Cc2ccccc2)CC1)C(O)(c1ccccc1)c1ccccc1
inactive: UO-31 > 100 µM | MDA-MB-435 > 100 µM | NCI-H23 > 100 µM | SF-268 > 100 µM | T47D > 100 µM | SF-539 > 100 µM | KM12 > 100 µM | U-251 > 100 µM | RPMI-8226 > 100 µM | DU-145 > 100 µM | SK-OV-3 > 100 µM | SNB-19 > 100 µM | SN12C > 100 µM | SW-620 > 100 µM

CCC1(c2ccc(OC)c(OC)c2)CCN2C(=O)C(O)CC21 (stereo not given)
inactive: UO-31 > 100 µM | CAKI-1 > 100 µM | MDA-MB-435 > 100 µM | NCI-H23 > 100 µM | SF-268 > 100 µM | T47D > 100 µM | KM12 > 100 µM | U-251 > 100 µM | DU-145 > 100 µM | MDA-N > 100 µM | SK-OV-3 > 100 µM | SNB-19 > 100 µM | SN12C > 100 µM | PC-3 > 100 µM | SW-620 > 100 µM

NCCN1CCCCCc2ccccc21
inactive: UO-31 > 10 µM | CAKI-1 > 10 µM | MDA-MB-435 > 10 µM | NCI-H23 > 10 µM | SF-268 > 10 µM | T47D > 10 µM | SF-539 > 10 µM | KM12 > 10 µM | U-251 > 10 µM | RPMI-8226 > 10 µM | DU-145 > 10 µM | SK-OV-3 > 10 µM | SNB-19 > 10 µM | SN12C > 10 µM | PC-3 > 10 µM | SW-620 > 10 µM

CCC(CCCCC1CC[C@H]2CC(=O)C[C@@H]12)OC (stereo not given in full)
inactive: CAKI-1 > 100 µM | NCI-H23 > 100 µM | SF-268 > 100 µM | T47D > 100 µM | SF-539 > 100 µM | U-251 > 100 µM | DU-145 > 100 µM | SK-OV-3 > 100 µM | SNB-19 > 100 µM | SN12C > 100 µM | SW-620 > 100 µM
